# Test results taken from patent US20260226041A1 (ARIGENX THERAPEUTICS CO., LTD., priority 2023, published 2026).
# pEC50: −log10 of the molar value.
# Target: T1, rat AHR (Rattus norvegicus, UniProt P41738)
# T1 construct: The reporter gene was introduced into a genome of rat hepatoma H-4-II-E cells via lentiviral infection; endogenous in cells; host or cells: H-4-II-E (rat hepatoma) with a lentivirally integrated 6x XRE Nano-luc reporter
# T1 sequence (P41738 10-853): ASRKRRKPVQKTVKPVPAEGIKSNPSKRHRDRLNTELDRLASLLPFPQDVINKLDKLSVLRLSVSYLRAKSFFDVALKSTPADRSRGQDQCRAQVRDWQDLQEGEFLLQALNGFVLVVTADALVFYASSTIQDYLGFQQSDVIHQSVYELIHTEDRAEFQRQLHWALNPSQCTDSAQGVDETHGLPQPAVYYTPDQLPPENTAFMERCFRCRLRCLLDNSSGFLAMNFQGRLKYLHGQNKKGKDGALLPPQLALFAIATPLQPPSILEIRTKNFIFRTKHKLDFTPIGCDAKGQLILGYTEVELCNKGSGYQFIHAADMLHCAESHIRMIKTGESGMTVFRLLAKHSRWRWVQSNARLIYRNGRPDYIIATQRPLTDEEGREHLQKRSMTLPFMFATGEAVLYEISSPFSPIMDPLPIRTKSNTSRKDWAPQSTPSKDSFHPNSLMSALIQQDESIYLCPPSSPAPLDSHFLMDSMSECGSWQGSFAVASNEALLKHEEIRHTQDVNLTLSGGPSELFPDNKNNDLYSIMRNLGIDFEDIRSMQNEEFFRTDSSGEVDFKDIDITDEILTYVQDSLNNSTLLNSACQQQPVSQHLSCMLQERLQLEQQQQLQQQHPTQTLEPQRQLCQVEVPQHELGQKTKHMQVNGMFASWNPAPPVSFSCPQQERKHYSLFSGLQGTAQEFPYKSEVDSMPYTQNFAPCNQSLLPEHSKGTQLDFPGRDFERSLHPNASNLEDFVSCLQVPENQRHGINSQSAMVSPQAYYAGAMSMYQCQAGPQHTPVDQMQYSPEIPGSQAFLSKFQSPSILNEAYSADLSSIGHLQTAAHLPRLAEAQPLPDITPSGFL
# Assay: Rat AHR agonist luciferase assay (6x XRE Nano-luc reporter in H-4-II-E cells)
# Format: cell-based
# Details: AHR activation, rat hepatoma H-4-II-E reporter cells, incubated 4 to 24 hours; read-out: H4IIE EC50
# Description: A lentivirus containing the reporter gene was generated by co-transfecting the transfer plasmid with packaging plasmids into 293T cells using conventional transfection methods in the art, followed by purification. The reporter gene was introduced into a genome of rat hepatoma H-4-II-E cells via lentiviral infection, and cells stably expressing the reporter gene were selected with puromycin for the rat AHR agonist luciferase assay.
row,pEC50,Structure (SMILES)
1,≥ 8.00,O=C(c1nc(C2(Cl)CCOC2=O)cs1)c1c[nH]c2cc(F)ccc12 (stereo not drawn) [Compound 4-2]
2,4.00 to 5.70,COc1ccc2[nH]cc(C(=O)c3nc(C4CCN(C)C4=O)cs3)c2c1 (stereo not drawn) [Compound 7-5]
3,4.00 to 5.70,CN1CCC(c2csc(C(=O)c3c[nH]c4cc5c(cc34)OCO5)n2)C1=O (stereo not drawn) [Compound 7-6]

# The next lines start with the molecule.
row,Structure (SMILES),pEC50
1,O=C(c1nc(C2(O)CCOC2=O)cs1)c1c[nH]c2cc(F)ccc12 (stereo not drawn) [Compound 2-2],≥ 8.00
2,COc1ccc2c(C(=O)c3nc(C4(O)CCOC4=O)cs3)c[nH]c2c1 (stereo not drawn) [Compound 2-3],≥ 8.00
3,O=C(c1nc(C2(O)CCOC2=O)cs1)c1c[nH]c2ccccc12 (stereo not drawn) [Compound 2],≥ 8.00
4,O=C(c1nc(C2(Cl)CCOC2=O)cs1)c1c[nH]c2ccccc12 (stereo not drawn) [Compound 4],≥ 8.00
5,"COC(=O)c1csc(C(=O)c2c[nH]c3ccccc23)n1 [ITE, 2-(1H-indole-3-carbonyl)thiazole-4-carboxylic acid methyl ester, reference compound]",5.70 to 8.00

# Target: mouse AHR (Mus musculus, UniProt P30561)
# Assay: Mouse AHR agonist luciferase assay (6x XRE Nano-luc reporter in Hepa1-6 cells);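 also: stable Hepa1-6 reporter line, 4–24 h exposure, 11-point serial dilution, Nano-Glo luminescence as fold over medium-only baseline, EC50 from four-parameter fit of activation fold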
# Details: not given
# Sequence of mouse AHR (P30561 10-805 limits assumed): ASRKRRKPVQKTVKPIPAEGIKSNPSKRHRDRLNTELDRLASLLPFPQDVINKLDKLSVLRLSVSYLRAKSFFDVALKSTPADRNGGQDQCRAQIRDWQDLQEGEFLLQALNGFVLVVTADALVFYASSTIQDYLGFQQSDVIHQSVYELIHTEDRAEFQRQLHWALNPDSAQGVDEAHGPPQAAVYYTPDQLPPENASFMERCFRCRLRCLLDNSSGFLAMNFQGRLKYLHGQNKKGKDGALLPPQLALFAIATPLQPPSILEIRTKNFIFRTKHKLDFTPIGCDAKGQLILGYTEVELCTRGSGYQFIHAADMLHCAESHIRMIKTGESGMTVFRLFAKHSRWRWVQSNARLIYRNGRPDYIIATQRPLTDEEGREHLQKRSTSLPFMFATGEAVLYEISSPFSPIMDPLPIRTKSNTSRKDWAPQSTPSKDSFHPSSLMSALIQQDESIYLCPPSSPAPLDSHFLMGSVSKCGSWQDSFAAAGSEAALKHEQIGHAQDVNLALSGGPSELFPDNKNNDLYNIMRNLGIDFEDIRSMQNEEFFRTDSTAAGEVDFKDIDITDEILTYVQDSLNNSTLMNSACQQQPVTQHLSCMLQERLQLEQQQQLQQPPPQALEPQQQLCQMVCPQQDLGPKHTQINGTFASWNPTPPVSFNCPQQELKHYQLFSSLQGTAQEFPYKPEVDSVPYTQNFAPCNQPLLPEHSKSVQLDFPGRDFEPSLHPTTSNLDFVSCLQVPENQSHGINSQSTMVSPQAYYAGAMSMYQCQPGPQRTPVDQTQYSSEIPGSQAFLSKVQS
# Sequence of mouse AHR (P53762 whole entry partner): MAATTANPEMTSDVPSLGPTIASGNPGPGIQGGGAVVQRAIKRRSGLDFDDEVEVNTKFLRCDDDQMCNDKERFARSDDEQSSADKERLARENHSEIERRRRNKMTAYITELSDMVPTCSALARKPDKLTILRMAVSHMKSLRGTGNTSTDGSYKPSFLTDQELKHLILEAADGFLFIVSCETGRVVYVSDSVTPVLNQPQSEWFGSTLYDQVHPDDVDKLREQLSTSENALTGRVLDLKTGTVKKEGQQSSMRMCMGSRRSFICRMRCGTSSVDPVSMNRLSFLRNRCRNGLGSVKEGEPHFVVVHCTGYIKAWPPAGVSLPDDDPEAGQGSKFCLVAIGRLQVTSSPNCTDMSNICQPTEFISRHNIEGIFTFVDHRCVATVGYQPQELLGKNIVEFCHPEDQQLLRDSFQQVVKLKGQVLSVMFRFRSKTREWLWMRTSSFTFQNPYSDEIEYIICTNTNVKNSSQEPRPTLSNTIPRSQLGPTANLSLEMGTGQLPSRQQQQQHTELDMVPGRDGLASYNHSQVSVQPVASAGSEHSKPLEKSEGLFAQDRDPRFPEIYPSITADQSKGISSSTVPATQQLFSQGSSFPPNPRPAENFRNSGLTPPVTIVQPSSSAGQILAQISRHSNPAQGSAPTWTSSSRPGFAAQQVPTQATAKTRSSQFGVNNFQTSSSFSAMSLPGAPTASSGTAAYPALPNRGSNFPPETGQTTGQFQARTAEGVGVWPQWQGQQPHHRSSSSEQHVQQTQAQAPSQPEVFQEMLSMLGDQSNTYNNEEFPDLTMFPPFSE
row,pEC50,Structure (SMILES)
1,> 7.00,O=C(c1nc(C2(Cl)CCOC2=O)cs1)c1c[nH]c2cc(F)ccc12 (stereo not drawn) [Compound 4-2]
2,> 7.00,COc1ccc2[nH]cc(C(=O)c3nc(C4CCN(C)C4=O)cs3)c2c1 (stereo not drawn) [Compound 7-5]
3,> 7.00,CN1CCC(c2csc(C(=O)c3c[nH]c4cc5c(cc34)OCO5)n2)C1=O (stereo not drawn) [Compound 7-6]

# More lines, now with the values behind:
row,Structure (SMILES),pEC50
1,O=C(c1nc(C2(O)CCOC2=O)cs1)c1c[nH]c2cc(F)ccc12 (stereo not drawn) [Compound 2-2],> 7.00
2,COc1ccc2c(C(=O)c3nc(C4(O)CCOC4=O)cs3)c[nH]c2c1 (stereo not drawn) [Compound 2-3],> 7.00
3,O=C(c1nc(C2(O)CCOC2=O)cs1)c1c[nH]c2ccccc12 (stereo not drawn) [Compound 2],> 7.00
4,O=C(c1nc(C2(Cl)CCOC2=O)cs1)c1c[nH]c2ccccc12 (stereo not drawn) [Compound 4],> 7.00
5,"COC(=O)c1csc(C(=O)c2c[nH]c3ccccc23)n1 [ITE, 2-(1H-indole-3-carbonyl)thiazole-4-carboxylic acid methyl ester, reference compound]",5.70 to 7.00

# Target: T2, human AHR (Homo sapiens, UniProt P35869)
# T2 sequence (P35869 11-848): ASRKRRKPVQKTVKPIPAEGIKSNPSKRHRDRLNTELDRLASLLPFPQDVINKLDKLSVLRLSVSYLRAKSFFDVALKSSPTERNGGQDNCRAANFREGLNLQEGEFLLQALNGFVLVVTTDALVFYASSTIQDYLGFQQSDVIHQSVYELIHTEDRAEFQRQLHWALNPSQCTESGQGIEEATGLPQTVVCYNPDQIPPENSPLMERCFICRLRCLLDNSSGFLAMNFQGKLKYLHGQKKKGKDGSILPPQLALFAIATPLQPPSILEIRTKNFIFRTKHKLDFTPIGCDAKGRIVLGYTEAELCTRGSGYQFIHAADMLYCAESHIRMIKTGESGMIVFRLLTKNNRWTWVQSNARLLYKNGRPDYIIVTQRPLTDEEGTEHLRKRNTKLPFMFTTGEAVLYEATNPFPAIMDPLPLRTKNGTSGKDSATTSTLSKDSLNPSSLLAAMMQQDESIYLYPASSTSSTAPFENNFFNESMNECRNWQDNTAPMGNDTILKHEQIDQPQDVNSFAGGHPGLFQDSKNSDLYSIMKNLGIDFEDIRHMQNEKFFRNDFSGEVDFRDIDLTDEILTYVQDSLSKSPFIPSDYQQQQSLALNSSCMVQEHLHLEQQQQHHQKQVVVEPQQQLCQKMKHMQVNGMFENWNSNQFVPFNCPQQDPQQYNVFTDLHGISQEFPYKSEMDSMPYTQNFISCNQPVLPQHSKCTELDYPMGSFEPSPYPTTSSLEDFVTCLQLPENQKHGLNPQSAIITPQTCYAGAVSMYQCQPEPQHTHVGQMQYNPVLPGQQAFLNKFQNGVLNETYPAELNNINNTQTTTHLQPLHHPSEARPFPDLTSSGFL
# Assay: Human AHR agonist luciferase assay (CYP1A1 promoter Nano-luc reporter in HepG2 cells);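 also: stably transfected HepG2 clone, DRE-containing 1200 bp promoter region driving Nano-luc, treated 4 to 24 h with 11-point dilutions in tryptophan-free medium, medium-only wells as baseline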
# Details: not given
row,pEC50,Structure (SMILES)
1,> 6.30,O=C(c1nc(C2(Cl)CCOC2=O)cs1)c1c[nH]c2cc(F)ccc12 (stereo not drawn) [Compound 4-2]
2,> 6.30,COc1ccc2[nH]cc(C(=O)c3nc(C4CCN(C)C4=O)cs3)c2c1 (stereo not drawn) [Compound 7-5]
3,> 6.30,CN1CCC(c2csc(C(=O)c3c[nH]c4cc5c(cc34)OCO5)n2)C1=O (stereo not drawn) [Compound 7-6]

# The next lines start with the molecule.
row,Structure (SMILES),pEC50
1,O=C(c1nc(C2(O)CCOC2=O)cs1)c1c[nH]c2cc(F)ccc12 (stereo not drawn) [Compound 2-2],> 6.30
2,COc1ccc2c(C(=O)c3nc(C4(O)CCOC4=O)cs3)c[nH]c2c1 (stereo not drawn) [Compound 2-3],> 6.30
3,O=C(c1nc(C2(O)CCOC2=O)cs1)c1c[nH]c2ccccc12 (stereo not drawn) [Compound 2],> 6.30
4,O=C(c1nc(C2(Cl)CCOC2=O)cs1)c1c[nH]c2ccccc12 (stereo not drawn) [Compound 4],> 6.30
5,"COC(=O)c1csc(C(=O)c2c[nH]c3ccccc23)n1 [ITE, 2-(1H-indole-3-carbonyl)thiazole-4-carboxylic acid methyl ester, reference compound]",> 6.30
